These results are taken from US20120122906A1, “NOVEL SULFONAMIDE DERIVATIVE AND PHARMACEUTICAL PRODUCT CONTAINING SAME” (KOWA COMPANY, LTD., priority 2009, published 2012).

Test [1] concerns the target T1, angiotensin II type 1 receptor (Oryctolagus cuniculus, UniProt P34976).
T1 construct: By using a specimen of isolated rabbit blood vessels; from tissue; host or cells: rabbit thoracic aorta ring (New Zealand White, male)
T1 sequence (P34976 1-359): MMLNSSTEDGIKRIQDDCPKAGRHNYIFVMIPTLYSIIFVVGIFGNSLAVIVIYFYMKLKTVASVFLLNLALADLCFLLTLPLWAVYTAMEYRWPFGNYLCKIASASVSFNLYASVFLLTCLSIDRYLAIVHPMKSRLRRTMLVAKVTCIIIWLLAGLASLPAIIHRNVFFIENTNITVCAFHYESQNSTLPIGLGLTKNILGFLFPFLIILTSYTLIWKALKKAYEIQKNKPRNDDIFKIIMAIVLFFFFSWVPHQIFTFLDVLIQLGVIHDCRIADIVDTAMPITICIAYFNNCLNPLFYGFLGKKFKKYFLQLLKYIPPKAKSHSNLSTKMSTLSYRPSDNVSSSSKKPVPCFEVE
The test can be described thus: Angiotensin II antagonistic activity in isolated rabbit blood vessels (angiotensin II-induced contraction of thoracic aorta ring). To be noted: 0.1 μM compound, angiotensin II (10 nM)-induced contraction, read-out: Angiotensin II activity inhibition rate (%) at 0.1 μM concentration. Here is the method: By using a specimen of isolated rabbit blood vessels, antagonistic activity of the compounds of the invention against angiotensin II type 1 receptor was estimated from a dose-response curve of angiotensin II-induced blood vessel contraction. Specifically, the specimen of thoracic aorta ring of a rabbit (New Zealand White: male, 2.4 to 3.0 kg) was suspended in a magnus bath filled with Krebs-Henseleite buffer (composition: 118 mM NaCl, 4.7 mM KCl, 2.55 mM CaCl2, 1.18 mM MgSO4, 1.18 mM KH2PO4, 24.88 mM NaHCO3, and 11.1 mM D-glucose), and angiotensin II (10 nM)-induced contraction was obtained in the presence of the compounds of each example (1 nmol to 10 μmol/L). During the measurement, the inside temperature of the magnus bath was maintained at 37° C. and the bath was continuously ventilated with a sufficient amount of mixed gas (95% O2 and 5% CO2). The angiotensin II-induced contraction was converted into a relative value (%) that is based on the angiotensin II (10 nM)-induced contraction in the absence of the compounds of each example. From the concentration-response curve obtained therefrom, 50% inhibition concentration (IC50 value) was calculated by using SAS Preclinical Package Ver 5.0 (trade name, manufactured by SAS institute Japan Co., Tokyo, Japan), which is a statistical analysis program.

Another test addresses T2, human PPARγ2 (Homo sapiens, UniProt P37231).
T2 construct: the amino acids 182 to 505 of human PPARγ2; expressed in transfected cells
T2 sequence (P37231 182-505): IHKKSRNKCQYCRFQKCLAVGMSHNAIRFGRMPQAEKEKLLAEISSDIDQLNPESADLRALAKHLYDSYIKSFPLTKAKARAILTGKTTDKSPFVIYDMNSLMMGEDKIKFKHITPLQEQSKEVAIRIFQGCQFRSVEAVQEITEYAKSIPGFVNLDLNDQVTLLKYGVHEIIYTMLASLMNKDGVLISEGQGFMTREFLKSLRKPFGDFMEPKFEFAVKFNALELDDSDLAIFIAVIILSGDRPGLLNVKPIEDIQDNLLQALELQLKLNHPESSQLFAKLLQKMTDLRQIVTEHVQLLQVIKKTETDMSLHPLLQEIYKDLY
The test can be described thus: PPARγ activation activity, Gal4-PPARγ2 LBD luciferase transfection assay in COST cells. The class given is cell-based. The conditions noted are these: Gal4-human PPARγ2 LBD luciferase reporter, 16 hours, rosiglitazone = 100%. Here is the method:
The agonistic activity of the compounds of the invention on PPARγ was measured based on the transfection assay using COST cells (DS Pharma Biomedical Co., Ltd., Osaka, Japan), which are the cell line derived from the kidney of the African green monkey. COST cells were cultured under 5% CO2 concentration, and DMEM medium containing 10% fetal bovine serum, glutamic acid, and antibiotics was used as a medium.
As an expression vector, a chimera in which DNA binding domain of Gal4, which is a yeast transcription factor, and ligand binding domain of human PPARγ2 are fused, i.e., a fused product between the amino acids 1 to 147 of Gal4 transcription factor and the amino acids 182 to 505 of human PPARγ2, was used. Furthermore, as a reporter vector, a firefly luciferase containing five copies of Gal4 recognition sequence in the promoter region was used. Plasmid transfection to the cells was performed according to a method which uses jetPEI (trade name, manufactured by Funakoshi Co., Ltd., Tokyo, Japan). Furthermore, β-galactosidase expression vector was employed as an internal standard.
After the transfection of the cells, the medium was replaced with a DMEM medium (containing 1% serum) added with the compound, and the cells were further cultured for 16 hours. After that, the luciferase activity and β-galactosidase activity in the cell lysis solution were measured.
For the present test, dimethyl sulfoxide (DMSO) was used for dissolution and dilution of the test compounds, and during the cell treatment, the DMSO concentration in DMEM medium (containing 1% serum) was adjusted to 0.1%. As a positive compound, rosiglitazone (trade name, manufactured by ALEXIS Corporation, Switzerland) was used. The luciferase activity (%) of the test compounds (1 to 30 μmol/L) was calculated when the luciferase activity of rosiglitazone (3 to 10 μmol/L) is 100% and the luciferase activity in the absence of the test compound is 0%. The 50% effective concentration of the test compound (EC50, 50% effect concentration) was calculated by using SAS Preclinical Package Ver 5.0 (trade name, manufactured by SAS institute Japan Co., Tokyo, Japan), which is a statistical analysis program.
Under the same condition, the PPARγ activation activity of telmisartan, i.e., EC50, was 1 to 5 μM. In addition, it was confirmed that compounds of Examples not shown in Table 2 also have PPARγ activation activity at a concentration of 30 μM.

By EC50 is commonly meant the concentration that produces a half-maximal response. Turning to `CCCCc1nc(C)n(-c2ncc(OCC)cn2)c(=O)c1Cc1ccc(-c2ccccc2S(=O)(=O)NC(=O)C2CCCC2)cc1` [Example 9, N-{4′-{[4-butyl-1-(5-ethoxypyrimidin-2-yl)-2-methyl-6-oxo-1,6-dihydropyrimidin-5-yl]methyl}biphenyl-2-ylsulfonyl}cyclopentanecarboxamide], the inhibition at 0.1 µM in test [1] is 100%. This molecule also had a concentration giving a half-maximal response (EC50) at human PPARγ2 of 3.52 µM.
